Reference: US20100022600A1, “METHODS AND COMPOSITIONS FOR TREATING CENTRAL NERVOUS SYSTEM TUMORS” (priority 2006, published 2010)

Assays:
Rat C6 glioma cells = assay: MTT viability assay, rat C6 glioma cells; assay type: cell-based; conditions: 10 and 30 μM; concentration- and time-dependent; significant at 5 d and 7 d (30 μM) and at 7 d (10 μM)
Protocol: (§1) Rat C6 glioma cells were grown in DMEM and human glioma cells (U87, A172) in RPMI, supplemented with 10% (v/v) fetal calf serum, 100 U/mL penicillin and 100 U/mL streptomycin in a 5% CO2 atmosphere. Primary astrocyte cultures were prepared as described previously (J Neurosci 1998; 18: 4451-60) and grown in DMEM, supplemented with 2.5% (v/v) fetal calf serum, 100 U/mL penicillin and 100 U/mL streptomycin in a 5% CO2 atmosphere. […] Experiments were performed in triplicate.

human glioma cells A172 = assay: MTT viability assay, human A172 glioma cells; assay type: cell-based; conditions: 30 μM pio; 3, 5 and 7 d
Protocol: as §1

primary astrocytes = assay: MTT viability assay, primary astrocytes; assay type: cell-based; conditions: 1, 10, 30 μM; 1, 3, 5, 7 d
Protocol: as §1

[1] = Clinical assessment of neurological deficits in C6 rat glioma model; assay type: in vivo; conditions: intracerebral treatment, 21 d
Protocol: After striatal injection of C6 cells and intracerebral treatment with pio or vehicle for 21 d, the animals were examined for neurological deficits. Neurological function was quantified by evaluation of hemiparesis, cycling and immobility (J Neurosurg 1986; 65: 222-9, Stroke 1999; 30: 427-31; discussion 431-2). Hemiparesis was assessed by forelimb flexion and immobility by the loss of ability to walk a distance greater than 15 cm. One point was given for each negative finding and total score then computed. The scores of the treated and untreated group were averaged. A blinded observer performed neurological examinations.

cleaved caspase-3 = assay: Immunohistochemistry of cleaved caspase-3 in tumors, C6 rat glioma model; assay type: in vivo; conditions: 6 to 14 days of pio treatment, significant maximum at 9 d
Protocol: Frozen brain sections were first blocked with 5% normal goat serum or normal horse serum in PBS and subsequently incubated with rabbit anti-Ki-67 antibody (1:200 dilution), mouse anti-CS-56 (1:100 dilution), goat anti-MMP-9 (1:100 dilution) or rabbit anti-cleaved caspase-3 antibody (1:200 dilution) at 4° C. overnight. Sections were washed extensively with PBS before incubation with secondary antibodies. Incubation was carried at room temperature for 1 h. After washing with PBS three times, stained slides were mounted with PBS/glycerol (1:1) and viewed under a fluorescent microscope (Leica, Germany). […] The percentage of cleaved caspase-3 positive cells was assessed by counting the immunopositive cells in 1×10^3 tumor (DAPI stain) cells and statistically compared.

C6 glioma tumor cells [2] = assay: TUNEL assay for apoptosis in tumors, C6 rat glioma model; assay type: in vivo; conditions: 9 days of pio treatment
Protocol: Frozen brain tissue sections were examined for apoptosis using the terminal deoxynucleotidyl transferase-mediated dUTP transferase nick-end labeling (TUNEL assay). Apoptosis was evaluated using the Promega DeadEnd Fluorometric Tunel System (Promega, Madison, Wis., USA) according to the manufacturer's instructions. The percentage of TUNEL positive cells was assessed by counting the immunopositve cells in 1×10^3 tumor (DAPI stain) cells and statistically compared.

C6 glioma tumor cells [3] = assay: BrdU incorporation in vivo; design: species or system rat; conditions: 14 d
Protocol: At thirteen days of treatment animals were intraperitoneally injected with 300 mg/kg of 5-bromodeoxyuridine (BrdU; Sigma, St. Louis, Mo.), a thymidine analog that incorporates into the DNA of dividing cells during S phase and can be detected immunohistochemically. Twenty-four hours later, these animals were anesthetized and perfused with phosphate-buffered saline (PBS). Brains were dissected, frozen, cut and immunostained in the following manner: Sections were fixed in 4% paraformaldehyde, washed in PBS, and incubated in 2 N HCl for 10 min at room temperature. Sections were again washed in PBS and incubated in BrdU primary antibody (rat monoclonal 1:100, Abcam, Cambridge, UK) in PBS containing 5% normal goat serum overnight at 4 C. After washing with PBS, sections were incubated in rhodamine-labeled anti-rat secondary antibody (1:100, Jackson, West Grove, Pa., USA) in PBS containing 5% normal goat serum for 1 h at room temperature. The number of dividing cells present in the tumor of these BrdU-stained sections was counted and compared to total amount of tumor cells stained with DAPI.

C6 glioma cells = assay: Boyden chamber assay, C6 cell migration; assay type: cell-based, rat
Protocol: C6 cell migration in the presence or absence of pio was assessed using a Boyden chamber (AP48, NeuroProbe, Gaithersburg, Md., USA) with an 8 μm polycarbonate PVPF-filter (Osmonics, Minnetonka, Minn., USA). Cells were suspended in DMEM containing 2.5% fetal calf serum and pio at 30 μM or vehicle (DMSO). C6 glioma cells were pretreated for 24 h in the presence or absence of 30 μM pio. Cells (5×10^3 in 50 μl pio/medium or vehicle/medium) were then plated in the wells of the upper compartment of the chamber (6 well/condition), and the wells of the lower compartment were filled with DMEM. Incubation was performed at 37° C. in 5% CO2 for 4 h. After incubation, cells on the upper surface of the filter, which had not migrated, were gently scraped off, and the filters were then fixed in methanol and subsequently stained with DAPI (1:500 in PBS; Sigma, St. Louis, Mo., USA). The number of cells which migrated to the lower surface of the filter, was counted using public domain software NIH Image 1.62 (Bethesda, Md., USA). Total number of migrating cells under pio treated and vehicle treated condition were compared statistically. Experiments were performed in duplicate.

CS-56 = CS-56 expression in tumor cells in vitro; assay type: cell-based; conditions: data not shown

CCc1ccc(CCOc2ccc(CC3SC(=O)NC3=O)cc2)nc1 (centres unmarked) [pioglitazone, 5-[4-[2-(5-ethylpyridin-2-yl)ethoxyl]benzyl]thiazolidine-2,4-dione]
cellular viability, effect in words (Rat C6 glioma cells): significantly reduced the cellular viability | cellular viability, effect in words (human glioma cells A172): significantly reduced cellular viability | viability of primary astrocytes (primary astrocytes): not affected | clinical outcome overall [1]: significant better clinical outcome | cycling ([1]; versus vehicle): no cycling | hemiparesis ([1]; versus vehicle): less hemiparesis | immobility ([1]; versus vehicle): less immobility | cleaved caspase-3 expression (immunohistochemistry) (cleaved caspase-3): elevated cleaved caspase-3 expression | TUNEL staining (C6 glioma tumor cells [2]): Increased TUNEL staining | BrdU-incorporation (C6 glioma tumor cells [3]): reduced | percentage of BrdU positive cells (C6 glioma tumor cells [3]): significantly lower | invasiveness of C6 cells (migrated cells) (C6 glioma cells; pio 30 μM during the Boyden chamber incubation, 4 h): reduced the invasiveness of C6 cells significantly | inhibition of invasiveness after pretreatment (C6 glioma cells; pretreatment of C6 cells for 24 h with 30 μM pio): further increased inhibition | CS-56 expression in vitro (CS-56): highly upregulated
